For this assay, the target named is ASK1 (Apoptosis Signal-Regulating Kinase 1) (Homo sapiens (Human), UniProt Q99683). As to the kind of experiment: ASK1 (Apoptosis Signal-Regulating Kinase 1) TR-FRET Kinase Assay (Biochemical IC50). The conditions noted are these: TR-FRET, biotin-MBP substrate, 20 min pre-incubation, ATP added as 300 μM solution. In general terms: Time-resolved FRET reads energy transfer from a long-lived donor to a nearby acceptor.
ASK1 (Apoptosis Signal-Regulating Kinase 1), sequence (Q99683 649-946): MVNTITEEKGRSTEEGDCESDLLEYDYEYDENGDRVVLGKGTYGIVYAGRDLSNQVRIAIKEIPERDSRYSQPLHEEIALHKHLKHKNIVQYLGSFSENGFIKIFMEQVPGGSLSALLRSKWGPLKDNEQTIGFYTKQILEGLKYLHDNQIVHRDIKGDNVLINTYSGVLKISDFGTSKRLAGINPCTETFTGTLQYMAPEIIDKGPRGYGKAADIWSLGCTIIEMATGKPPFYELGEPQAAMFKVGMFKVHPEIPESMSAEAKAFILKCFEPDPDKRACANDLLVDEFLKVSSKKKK
Description: The ability of compounds to inhibit ASK1 kinase activity was determined using a time resolved fluorescence resonance energy transfer [TR-FRET] assay utilizing biotinylated myelin basic protein [biotin-MBP] as the protein substrate. […] The enzyme was allowed to pre-incubate with compound for 20 minutes prior to initiating the kinase reaction with the addition of 5 μL/well 300 μM ATP in buffer (50 mM MOPS, pH 7.0, 5 mM Mg-acetate, 1 mM DTT, 5% DMSO) using the Decrac Fluidics Equator. The kinase reactions were allowed to proceed for 20 minutes at ambient temperature and were subsequently stopped with the addition of 5 μL/well 25 mM EDTA using the Deerac Fluidics Equator. […] The TR-FRET signal was then read on a Perkin. Elmer Envision plate reader after incubating the plates at ambient temperature for 2 hours.
The term IC50 denotes the midpoint of a concentration-inhibition curve. A high value points to weaker potency in that assay. Regarding `CCCc1ccc(-c2ccnc(C(=O)Nc3cccc(-c4nncn4C4CC4)c3)c2)cn1` [Example 114, N-(3-(4-cyclopropyl-4H-1,2,4-triazol-3-yl)phenyl)-6-propyl-3,4′-bipyridine-2′-carboxamide], half-maximal inhibition (IC50) required 5 nM.
In the case of `CC(C)[C@H](C)n1cnnc1-c1cccc(NC(=O)c2cc(-c3ccc(C4CC4)nc3)ccn2)c1` [Example 238, (S)-6-cyclopropyl-N-(3-(4-(3-methylbutan-2-yl)-4H-1,2,4-triazol-3-yl)phenyl)-3,4′-bipyridine-2′-carboxamide] it was 6 nM; in that of `CC(C)c1cn(-c2cccc(C(=O)Nc3cccc(-c4nncn4C4CC4)n3)c2)cn1` [Example 193, N-(6-(4-cyclopropyl-4H-1,2,4-triazol-3-yl)pyridin-2-yl)-3-(4-isopropyl-1H-imidazol-1-yl)benzamide], 5 nM.
For the compound `CC(C)(C)Cc1ccc(-c2ccnc(C(=O)Nc3cccc(-c4nncn4C4CC4)c3)c2)cn1` [Example 115, N-(3-(4-cyclopropyl-4H-1,2,4-triazol-3-yl)phenyl)-6-neopentyl-3,4′-bipyridine-2′-carboxamide], it took 15 nM to reach half-maximal inhibition (IC50).
In turn, `CCc1ncc(-c2ccnc(C(=O)Nc3cccc(-c4nncn4C4CC4)c3)c2)cn1` [Example 145, N-(3-(4-cyclopropyl-4H-1,2,4-triazol-3-yl)phenyl)-4-(2-ethylpyrimidin-5-yl)picolinamide] gave a 50% inhibitory concentration (IC50) of 7 nM.
With `O=C(Nc1cccc(-c2nncn2C2CC2)n1)c1cccc(-n2cnc3c2CCCC3)c1` [Example 212, N-(6-(4-cyclopropyl-4H-1,2,4-triazol-3-yl)pyridin-2-yl)-3-(4,5,6,7-tetrahydro-1H-benzo[d]imidazol-1-yl)benzamide], the IC50 stood at 9 nM. This IC50 and that of the compound before are within 1.5-fold of each other.
Under `O=C(Nc1cccc(-c2nncn2C2CC2)c1)c1cc(-c2cnc(C3CC3)cn2)ccn1` [Example 133, N-(3-(4-cyclopropyl-4H-1,2,4-triazol-3-yl)phenyl)-4-(5-cyclopropylpyrazin-2-yl)picolinamide] stands 10 nM; under `COC[C@H](C)n1cnnc1-c1cccc(NC(=O)c2cc(-c3ccc(C4CC4)nc3)ccn2)c1` [Example 232, (S)-6-cyclopropyl-N-(3-(4-(1-methoxypropan-2-yl)-4H-1,2,4-triazol-3-yl)phenyl)-3,4′-bipyridine-2′-carboxamide], 17 nM; under `Cc1ccc(-n2cnc(C3CC3)c2)cc1C(=O)Nc1cccc(-c2nncn2C2CC2)n1` [Example 197, 5-(4-cyclopropyl-1H-imidazol-1-yl)-N-(6-(4-cyclopropyl-4H-1,2,4-triazol-3-yl)pyridin-2-yl)-2-methylbenzamide], 47 nM.
For `O=C(Nc1cccc(-c2nncn2C2CC2)c1)c1cc(-n2ncnc2C2CC2)ccn1` [Example 203, 4-(5-cyclopropyl-1H-1,2,4-triazol-1-yl)-N-(3-(4-cyclopropyl-4H-1,2,4-triazol-3-yl)phenyl)picolinamide], the IC50 stood at 538 nM.
On to `CCC(C)n1cnnc1-c1cccc(NC(=O)c2cc(-c3ccc(C4CC4)nc3)ccn2)c1` (stereo not shown) [Example 229, N-(3-(4-sec-butyl-4H-1,2,4-triazol-3-yl)phenyl)-6-cyclopropyl-3,4′-bipyridine-2′-carboxamide], for which the midpoint of inhibition, the IC50, lay at 101 nM. Against the preceding compound, the IC50 is about 5.3-fold lower.
In turn, `O=C(Nc1cccc(-c2nncn2CC2CC2)c1)c1cc(-c2cccnc2)ccn1` [Example 181, N-(3-(4-(cyclopropylmethyl)-4H-1,2,4-triazol-3-yl)phenyl)-3,4′-bipyridine-2′-carboxamide] returned a concentration for half-maximal inhibition (IC50) of 131 nM.
Take `CC(C)(C)c1ccc(-c2ccnc(C(=O)Nc3cccc(-c4nncn4C4CC4)c3)c2)cn1` [Example 149, 6-tert-butyl-N-(3-(4-cyclopropyl-4H-1,2,4-triazol-3-yl)phenyl)-3,4′-bipyridine-2′-carboxamide]: the IC50 came out at 25 nM.
The compound `O=C(Nc1cccc(-c2nncn2C2CC2)c1)c1cc(-c2cnc3c(c2)CN(CC(F)(F)F)CC3)ccn1` [Example 161, N-(3-(4-cyclopropyl-4H-1,2,4-triazol-3-yl)phenyl)-4-(6-(2,2,2-trifluoroethyl)-5,6,7,8-tetrahydro-1,6-naphthyridin-3-yl)picolinamide] returned an IC50 of 9 nM.
On to `O=C(Nc1cccc(-c2nncn2C2CC2)n1)c1cc(-n2cnc3c2CCNC3C(F)(F)F)ccn1` (stereo not shown) [Example 195, N-(6-(4-cyclopropyl-4H-1,2,4-triazol-3-yl)pyridin-2-yl)-4-(4-(trifluoromethyl)-4,5,6,7-tetrahydro-1H-imidazo[4,5-c]pyridin-1-yl)picolinamide], for which the midpoint of inhibition, the IC50, lay at 8 nM.
Turning to `O=C(Nc1cccc(-c2nncn2C2CC2)c1)c1cc(-n2nnc3ccccc32)ccn1` [Example 85, 4-(1H-benzo[d][1,2,3]triazol-1-yl)-N-(3-(4-cyclopropyl-4H-1,2,4-triazol-3-yl)phenyl)picolinamide], the concentration for half-maximal inhibition (IC50) is 141 nM.
For the compound `Cc1nc(C2CC2)cn1-c1ccnc(C(=O)Nc2cccc(-c3nncn3C3CC3)n2)c1` [Example 183, 4-(4-cyclopropyl-2-methyl-1H-imidazol-1-yl)-N-(6-(4-cyclopropyl-4H-1,2,4-triazol-3-yl)pyridin-2-yl)picolinamide], half-maximal inhibition (IC50) required 8 nM.
In the case of `O=C(Nc1cccc(-c2nncn2C2CC2)n1)c1cc(-c2ccc(C3CC3)nc2)c2ccccc2n1` [Example 225, N-(6-(4-cyclopropyl-4H-1,2,4-triazol-3-yl)pyridin-2-yl)-4-(6-cyclopropylpyridin-3-yl)quinoline-2-carboxamide] it was 103 nM.
Under `O=C(Nc1cccc(-c2nncn2C2CC2)n1)c1cc(-n2cnc(C(O)C(F)(F)F)c2)ccn1` (stereo not shown) [Example 207, N-(6-(4-cyclopropyl-4H-1,2,4-triazol-3-yl)pyridin-2-yl)-4-(4-(2,2,2-trifluoro-1-hydroxyethyl)-1H-imidazol-1-yl)picolinamide] stands 11 nM; under `NC(=O)c1cncc(-c2ccnc(C(=O)Nc3cccc(-c4nncn4C4CC4)c3)c2)c1` [Example 64, N2′-(3-(4-cyclopropyl-4H-1,2,4-triazol-3-yl)phenyl)-3,4′-bipyridine-2′,5-dicarboxamide], 17 nM; under `O=C(Nc1cccc(-c2nncn2C2CC2)c1)c1cc(-c2ccc(OC3CCC3)nc2)ccn1` [Example 95, 6-cyclobutoxy-N-(3-(4-cyclopropyl-4H-1,2,4-triazol-3-yl)phenyl)-3,4′-bipyridine-2′-carboxamide], 31 nM.
In the case of `O=C(Nc1cccc(-c2nncn2C2CC2)c1)c1cc(-c2ccc(N3CCCC3)nc2)ccn1` [Example 47, N-(3-(4-cyclopropyl-4H-1,2,4-triazol-3-yl)phenyl)-6-(pyrrolidin-1-yl)-3,4′-bipyridine-2′-carboxamide] it was 32 nM; in that of `O=C(Nc1cccc(-c2nncn2C2CC2)c1)c1cc(-c2ccc(F)nc2)ccn1` [Example 93, N-(3-(4-cyclopropyl-4H-1,2,4-triazol-3-yl)phenyl)-6-fluoro-3,4′-bipyridine-2′-carboxamide], 43 nM; in that of `O=C(Nc1cccc(-c2nncn2C2CC2)c1)c1cc(-c2cncc(C(F)(F)F)c2)ccn1` [Example 59, N-(3-(4-cyclopropyl-4H-1,2,4-triazol-3-yl)phenyl)-5-(trifluoromethyl)-3,4′-bipyridine-2′-carboxamide], 44 nM.
`C[C@@H](CO)n1cnnc1-c1cccc(NC(=O)c2cc(-c3cccnc3)ccn2)c1` [Example 20, (S)-N-(3-(4-(1-hydroxypropan-2-yl)-4H-1,2,4-triazol-3-yl)phenyl)-3,4′-bipyridine-2′-carboxamide] displayed an IC50 of 39 nM.
`O=C(Nc1cccc(-c2nncn2C2CC2)c1)c1cc(-n2cnc(C(F)(F)F)c2)ccn1` [Example 44, N-(3-(4-cyclopropyl-4H-1,2,4-triazol-3-yl)phenyl)-4-(4-(trifluoromethyl)-1H-imidazol-1-yl)picolinamide] showed an IC50 of 27 nM. The IC50 values of the last two compounds are within 1.5-fold of each other.
`O=C(Nc1cccc(-c2nncn2C2CC2)n1)c1cc(-n2cnc(C3CC3)c2)c2ccccc2n1` [Example 226, 4-(4-cyclopropyl-1H-imidazol-1-yl)-N-(6-(4-cyclopropyl-4H-1,2,4-triazol-3-yl)pyridin-2-yl)quinoline-2-carboxamide] returned a half-inhibitory concentration (IC50) of 16 nM. Compared with the last compound, the IC50 is about 1.7-fold lower.
For `CN1CCC(n2cnnc2-c2cccc(NC(=O)c3cc(-c4ccc(C5CC5)nc4)ccn3)n2)CC1` [Example 241, 6-cyclopropyl-N-(6-(4-(1-methylpiperidin-4-yl)-4H-1,2,4-triazol-3-yl)pyridin-2-yl)-3,4′-bipyridine-2′-carboxamide], the half-inhibitory concentration (IC50) stood at 616 nM. Compared with the last compound, the IC50 is about 38-fold higher.
`Cc1nccn1-c1ccnc(C(=O)Nc2cccc(-c3nncn3C3CC3)c2)c1` [Example 41, N-(3-(4-cyclopropyl-4H-1,2,4-triazol-3-yl)phenyl)-4-(2-methyl-1H-imidazol-1-yl)picolinamide] registered an IC50 of 48 nM. Against the preceding compound, the IC50 is about 13-fold lower.
In the case of `Cn1c(-c2ccnc(C(=O)Nc3cccc(-c4nncn4C4CC4)c3)c2)nnc1C1CC1` [Example 255, 4-(5-cyclopropyl-4-methyl-4H-1,2,4-triazol-3-yl)-N-(3-(4-cyclopropyl-4H-1,2,4-triazol-3-yl)phenyl)picolinamide] it was 685 nM; in that of `CCC(CC)n1cnnc1-c1cccc(NC(=O)c2cc(-c3ccc(C4CC4)nc3)ccn2)c1` [Example 231, 6-cyclopropyl-N-(3-(4-(pentan-3-yl)-4H-1,2,4-triazol-3-yl)phenyl)-3,4′-bipyridine-2′-carboxamide], 1420 nM; in that of `O=C(Nc1cccc(-c2nncn2C2CC2)c1)c1cc(-n2cnc(C3CC3)n2)ccn1` [Example 202, 4-(3-cyclopropyl-1H-1,2,4-triazol-1-yl)-N-(3-(4-cyclopropyl-4H-1,2,4-triazol-3-yl)phenyl)picolinamide], 17 nM.
On to `NC(=O)CCn1cnnc1-c1cccc(NC(=O)c2cc(-c3cccnc3)ccn2)c1` [Example 16, N-(3-(4-(3-amino-3-oxopropyl)-4H-1,2,4-triazol-3-yl)phenyl)-3,4′-bipyridine-2′-carboxamide], for which the IC50 was determined as 114 nM.
Regarding `O=C(Nc1cccc(-c2nncn2C2CC2)n1)c1ccnc(-c2ccc(C3CC3)nc2)c1` [Example 260, 6′-cyclopropyl-N-(6-(4-cyclopropyl-4H-1,2,4-triazol-3-yl)pyridin-2-yl)-2,3′-bipyridine-4-carboxamide], the half-inhibitory concentration (IC50) was 30 nM.

The record behind these values is USRE48711E1, “Apoptosis signal-regulating kinase inhibitors” (Gilead Sciences, Inc., priority 2009, dated 2021).
